Assay results taken from patent publication US20060052319A9, “Sensitization of cells to cytotoxic agents using oligonucleotides directed to nucleotide excision repair or transcritpion coupled repair genes” (priority 2000, published 2006).
Like-named read-outs stand apart in the source and are kept apart here.

Tests used:
[1] = test system: XPA mRNA; test: RT-PCR analysis of XPA mRNA levels after oligonucleotide transfection; assay type: cell-based; conditions: A2780/CP70 cells, 200 nM oligonucleotide with lipofectin, FIG. 3
Experimental: (§1) Total RNA was isolated from 2×10^6 cells using a total RNA isolation kit (S.N.A.P., Invitrogen, Carlsbad, Calif.) as instructed and was quantitated spectrophotometrically via absorbance at 260 nm. RT-PCR analysis was performed using the Superscript One-Step RT-PCR System (Life Technologies, Rockville, Md.). Ten ng samples of total RNA were used for RT-PCR analyses because it was determined that quantities of RT-PCR products derived from XPA and CSB mRNA varied in a linear fashion when RT-PCR was performed on total RNA samples of 1-50 ng. For CSB, primers: […]
(§2) were selected to amplify a 235-bp segment.
(§3) RT-PCR amplification was performed for 40 cycles to detect low mRNA levels while remaining in the linear range of PCR. Aliquots of amplified DNA were resolved via 1.5% agarose gel electrophoresis and visualized by ethidium bromide staining.

[2] = test system: A2780/CP70 ovarian carcinoma cells; test: MTS cell proliferation assay, sensitization to cisplatin or oxaliplatin after oligonucleotide transfection; conditions: for reduction of the ID50 of cisplatin / reduction of the ID50 of oxaliplatin / sensitivity of the cells to cisplatin or oxaliplatin (cytotoxicity of both platinum agents): A2780/CP70 cells transfected with oligonucleotide, three days in drug, MTS assay; for potentiation of cisplatin or oxaliplatin, dose response curves normalized to HYB 1019-transfected cells: A2780/CP70 cells, normalized to control oligonucleotide
Experimental: (§8) The oligonucleotides targeting CSB (969 and 971) were tested for their ability to sensitize A2780/CP70 cells to cisplatin or oxaliplatin. Cells were transfected with oligonucleotides and 24 hours later were replated on 96 well plates. After culturing in the presence of drug for another three days, cell viability was assessed by the MTS assay.
(§9) Delivery of oligonucleotides into A2780/CP70 cells for RT-PCR and cell proliferation assays was achieved using Lipofectin (Life Technologies, Rockville, Md.) as per the manufacturer's procedure. The final concentration of oligonucleotides was 200 nM and final concentration of lipofectin was 10 μg/ml. After 4 hours incubation with the lipofectin-oligonucleotides mixture, cells were replaced with normal culture medium and treated as indicated for subsequent assays.
(§10) For A2780/CP70 cells transfected with oligonucleotides or mismatched controls, cells were harvested via trypsinization 16-24 hrs after transfection and transferred to 96 well plates at 5×10^3 cells per well. […] Twenty-four hours after transfer, cells in quadruplicate wells were treated with cisplatin (Sigma, St. Louis, Mo.) in 2 mM phosphate buffered saline (PBS) or oxaliplatin National Cancer Institute) in 4 mM PBS at serial dilutions in culture medium or with no drug and maintained for three more days. Cell survival was quantitated using the CellTiter 96 Non-radioactive Cell Proliferation Assay (Promega, Madison, Wis.). […] A Trypan blue exclusion assay was also performed to verify that the values obtained via the cell titer assay correlated to numbers of viable cells. Readings from quadruplicate wells were averaged, normalized with respect to readings obtained from cells unexposed to drug, and are presented +/− standard deviation. Statistical significance was assessed via ANOVA (one-way followed by Dunnett's multiple comparison test) using the Prism software package (GraphPad, Inc. San Diego, Calif.). P values reported are for the multiple comparison test.

[3] = test system: A2780/CP70 cells; test: Growth in soft agar (colony) assay with cisplatin or oxaliplatin; assay type: cell-based; conditions: in the presence of either cisplatin or oxaliplatin, colonies counted 10 days later
Experimental: An alternative method for assessing the ability of oligonucleotides to inhibit tumor cell proliferation was also utilized. In this method, the transfected cells were transferred to soft agar containing various concentrations of oxaliplatin or cisplatin. Resulting colonies were counted 10 days later.
For growth in soft agar assay, cells transfected the previous day with oligonucleotides as described above were suspended (10^4 cells/well) in 0.5 ml of 0.3% Difco Noble agar (Becton Dickinson & Co. Microbiology Systems, Sparks, Md.) supplemented with complete culture medium and layered over 0.5 ml of 0.8% agar-medium in chambers of 24 well plates. Drug was added (day 0) and colonies counted ten days later after staining with nitroblue tetrazolium (Sigma, St. Louis, Mo.) as previously described (Rockx, et al. (2000) Proc. Nat. Acad. Sci. (USA) 97:10503-8). For this assay, statistical comparison was via paired t-test.

[4] = test system: CSB mRNA; test: RT-PCR analysis of CSB mRNA levels after oligonucleotide transfection; assay type: cell-based; conditions: A2780/CP70 cells, 200 nM oligonucleotide with lipofectin, FIG. 3
Experimental: as §1, §2, §3

[5] = test system: A2780/CP70 ovarian carcinoma cells
Experimental: as §8, §9, §10

[6] = test system: A2780/CP70 ovarian carcinoma cells; test: MTS cell proliferation assay, sensitization to oxidizing agents (hydrogen peroxide, gamma radiation); assay type: cell-based; conditions: MTS assay after three days of growth; for sensitivity of cells to hydrogen peroxide: FIG. 7A; for sensitivity of cells to gamma radiation: FIG. 7B
From the text: (§4) FIG. 7A is a graphic representation showing that oligonucleotides targeting CSB mRNA sensitize ovarian carcinoma cells to oxidative damage. A2780/CP70 ovarian carcinoma cells were transfected with oligonucleotides HYB 971 (SEQ ID NO:2) targeting CSB mRNA or control antisense oligonucleotide (HYB 1019) (SEQ ID NO:5) and then transferred to 96-well dishes for exposure to hydrogen peroxide at the indicated concentrations, followed by three days of growth in normal medium and subsequent assessment of cell proliferation via MTS assay.
as §4, with “7B” for “7A”, “gamma radiation” for “hydrogen peroxide”, “doses” for “concentrations,”
(§5) The cisplatin-resistant ovarian carcinoma cell line A2780/CP70 was maintained in RPMI-1640 medium supplemented with 10% fetal bovine serum, 1× penicillin -streptomycin-neomycin (PSN) (Gibco, Rockville, Md.) 2 mM L-glutamine and 0.2 units/ml insulin (Novo Nordisk Pharmaceuticals, Princeton, N.J.) at 37_C under a humidified 5% CO2 atmosphere. SV40-immortalized CS-B fibroblasts stably transfected with pCSB or control construct (generously provided by Dr. J. Hoeijmakers, Erasmus University, Rotterdam, Netherlands were maintained as previously described (Troelstra et al. (1992) Cell 71:939-953). SV40-immortalized CS-A cell lines (CS3BE.S3.G1+pDR2 and CS3BE.S3.G1+pDR2-CSA), were also maintained as described by Henning et al. (1995) Cell 82:555-564. DNA repair competent (GM 5659C), XP-A (GM2009), and XP-G (GM3021) fibroblasts were obtained from the National Institute of General Medical Sciences Human Genetic Mutant Cell Repository (Camden, N.J.) and maintained as described by Ratner et al. (1998) J. Biolog. Chem. 273:5184-5189. Gamma radiation was administered to cells in a 96 well plate with a Gamma Cell-40 Irradiator (Nordion International, Canada) while the 96 well plate was on ice.
(§6) P values reported are for the multiple comparison test.

[7] = test system: A2780/CP70 ovarian carcinoma cells; test: Plate assay of cell proliferation in the absence of added drug (cell number by hemacytometer); assay type: cell-based; conditions: absence of any other anti-cancer agents, two days in culture
Experimental: FIG. 8 is a graphic representation showing that anti-CSB oligonucleotides retard cell proliferation in the absence of cytotoxic agents. A2780/CP70 ovarian carcinoma cells were transfected with indicated oligonucleotides and maintained in culture media for two more days to assess cell proliferation rate.
A plate assay was also performed in the absence of added drug. Cells treated with oligonucleotides or mismatched controls were maintained in culture for two days. Cells were then trypsinized and cell number was determined using a hemacytometer. Numbers from three independent experiments were averaged and standard deviation was calculated. Statistical comparison was via paired t-test.

[8] = test system: Immortalized CS-B fibroblasts; test: MTS proliferation assay of CS-B fibroblasts versus CSB-restored fibroblasts; assay type: cell-based; conditions: 3 days drug exposure
Experimental: as §5, §6

[9] = test system: XP-G fibroblasts; test: MTS proliferation assay of XP-G fibroblasts versus NER proficient 5659C fibroblasts; assay type: cell-based, human
Experimental: (§7) Primary fibroblasts from XPA, XPG, or repair-competent individuals were exposed to oxaliplatin and assayed as described in FIGS. 1A-D.
as §5, §6

[10] = test system: XP-A fibroblasts; test: MTS proliferation assay of XP-A fibroblasts versus NER proficient 5659C fibroblasts; assay type: cell-based, human
Experimental: as §7, §5, §6

[11] = test system: Immortalized CS-A fibroblasts; test: MTS proliferation assay of CS-A fibroblasts versus CSA-restored fibroblasts; assay type: cell-based; conditions: 3 days drug exposure
Experimental: as §5, §6

“5′(590)-d(CCAAACCTGCACGATACATC)-3′ [HYB 1040, reference compound]” was tested, and the “XPA mRNA levels” value [1] was “did not reduce the level of XPA mRNA”.

For “5′(750)-d(GGTCCATACTCATGTTGATG)-3′ (DNA, backbone and methylation of C not given here) [HYB 963]”, the “XPA mRNA levels” value [1] was “reduce XPA mRNA levels”, the “reduction of the ID50 of cisplatin” value [2] was “about 25%” and the “reduction of the ID50 of oxaliplatin” value [2] was “about 25%”. The “sensitivity of the cells to cisplatin or oxaliplatin (cytotoxicity of both platinum agents)” value (shortened to “sensitivity of the cells”) [2] was “increase the sensitivity”.

For “5′(1110)-d(CTGACCTACCACTTCTGCAC)-3′ [HYB 964]”, the “XPA mRNA levels” value [1] was “reduce XPA mRNA levels”, the “reduction of the ID50 of cisplatin” value [2] was “about 25%” and the “reduction of the ID50 of oxaliplatin” value [2] was “about 25%”. For the same molecule, the “sensitivity of the cells” value [2] was “increase the sensitivity” and the “fewer colonies than control HYB 1040 or lipofectin-only (sham) transfected cells” value [3] was “about 50%”.

“5′(1612)-d(GCTACATAAGACCAGTGTGC)-3′ (DNA, backbone and methylation of C not given here) [HYB 1019, reference compound]” was tested, and the “sensitivity of the cells” value [2] was “did not alter the sensitivity” and the “CSB mRNA levels” value [4] was “did not reduce the level of CSB mRNA”.

“5′(2037)-d(GGTGACAGCAGCATTTGGAT)-3′ (DNA, backbone not given here) [HYB 969]” was tested, and the “sensitivity of the cells” value [5] was “substantially enhanced the cytotoxicity”, the “reduction of the ID50 of cisplatin” value [2] was 70% and the “reduction of the ID50 of oxaliplatin” value [2] was 50%. For the same molecule, the “potentiation of cisplatin or oxaliplatin, dose response curves normalized to HYB 1019-transfected cells” value [2] was “robust potentiation”, the “sensitivity of cells to hydrogen peroxide” value [6] was “significantly increased the sensitivity” and the “sensitivity of cells to gamma radiation” value [6] was “significantly increased the sensitivity”. The “reduction of proliferation compared to control oligonucleotide (HYB 1019) or sham transfected cells” value [7] was “about 50%” and the “reduction of CSB mRNA levels” value [4] was “about 50%”.

“5′-(3212)-d(GGAACATCATGGTCTGCTCC)-3′ [HYB 971]” was tested, and the “reduction of the ID50 of cisplatin” value [2] was 70%, the “reduction of the ID50 of oxaliplatin” value [2] was 50% and the “sensitivity of the cells” value [2] was “substantially enhanced the cytotoxicity”. The “potentiation of cisplatin or oxaliplatin, dose response curves normalized to HYB 1019-transfected cells” value [2] was “robust potentiation”, the “sensitivity of cells to hydrogen peroxide” value [6] was “significantly increased the sensitivity” and the “sensitivity of cells to gamma radiation” value [6] was “significantly increased the sensitivity”. The “reduction of proliferation compared to control oligonucleotide (HYB 1019) or sham transfected cells” value [7] was “about 50%” and the “reduction of CSB mRNA levels” value [4] was “about 50%”.

`O=C([O-])C(=O)[O-].[NH-][C@@H]1CCCC[C@H]1[NH-].[Pt+4]` (relative stereo) [oxaliplatin, Cis [(1R, 2R) 1,2-cyclohexanediamine-N,N′ oxalato (2-)-O,O′] platinum] was tested, and the “sensitivity of fibroblasts lacking functional CSB gene product versus restored WT” value [8] was “significantly more sensitive”, the “sensitivity of XP-G fibroblasts versus NER proficient 5659C fibroblasts” value [9] was “significantly more sensitive” and the “sensitivity of XP-A fibroblasts versus NER proficient 5659C fibroblasts” value [10] was “significantly more sensitive”. The “sensitivity of fibroblasts lacking functional CSA gene product versus restored WT” value [11] was “significantly more sensitive”.

With `N.N.[Cl][Pt][Cl]` [cisplatin, CIS-diamminedichloroplatinum] the “sensitivity of fibroblasts lacking functional CSB gene product versus restored WT” value [8] was “significantly more sensitive”, the “sensitivity of XP-G fibroblasts versus NER proficient 5659C fibroblasts” value [9] was “significantly more sensitive” and the “sensitivity of XP-A fibroblasts versus NER proficient 5659C fibroblasts” value [10] was “significantly more sensitive”. For the same molecule, the “sensitivity of fibroblasts lacking functional CSA gene product versus restored WT” value [11] was “significantly more sensitive”.
